Target: T1, PD-1/PD-L1 (Homo sapiens, UniProt Q9NZQ7)
T1 construct: Recombinant human PD-L1 protein (19-238) with a His-tag at the C-terminus; purchased AcroBiosystems PD1-H5229 (PD-L1); PD1-H5257 (PD-1)
Experiment: PD-1/PD-L1 homogenous time-resolved fluorescence (HTRF) binding assay
Conditions: recombinant human PD-L1 (19-238) His-tag / human PD-1 (25-167) Fc tag, class symbols
Experimental: Resolved Fluorescence (HTRF) Binding Assay
The assays were conducted in a standard black 384-well polystyrene plate with a final volume of 20 μL. Inhibitors were first serially diluted in DMSO and then added to the plate wells before the addition of other reaction components. The final concentration of DMSO in the assay was 1%. The assays were carried out at 25° C. in the PBS buffer (pH 7.4) with 0.05% Tween-20 and 0.1% BSA. Recombinant human PD-L1 protein (19-238) with a His-tag at the C-terminus was purchased from AcroBiosy stems (PD1-H5229). Recombinant human PD-1 protein (25-167) with Fc tag at the C-terminus was also purchased from AcroBiosystems (PD1-H5257). PD-L1 and PD-1 proteins were diluted in the assay buffer and 10 μL was added to the plate well. Plates were centrifuged and proteins were preincubated with inhibitors for 40 min. The incubation was followed by the addition of […] of HTRF detection buffer supplemented with Europium cryptate-labeled anti-human IgG (PerkinElmer-AD0212) specific for Fc and anti-His antibody conjugated to SureLight®-Allophycocyanin (APC, PerkinElmer-AD0059H). After centrifugation, the plate was incubated at 25° C. for 60 min. Before reading on a PHERAstar FS plate reader (665 nm/620 nm ratio). Final concentrations in the assay were […] PD1, 10 nM PD-L1, 1 nM europium anti-human IgG and 20 nM anti-His-Allophycocyanin. IC50 determination was performed by fitting the curve of percent control activity versus the log of the inhibitor concentration using the GraphPad Prism 5.0 software.
Data obtained for the Example compounds using the PD-1/PD-L1 homogenous time-resolved fluorescence (HTRF) binding assay described in Example A is provided in Table 4.

T1 sequence (Q9NZQ7 19-238): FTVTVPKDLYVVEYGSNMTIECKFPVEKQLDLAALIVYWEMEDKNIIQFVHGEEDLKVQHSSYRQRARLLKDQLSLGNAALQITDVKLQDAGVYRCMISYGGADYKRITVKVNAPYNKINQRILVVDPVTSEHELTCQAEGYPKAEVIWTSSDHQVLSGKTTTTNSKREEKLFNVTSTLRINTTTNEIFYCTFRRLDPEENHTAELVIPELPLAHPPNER

| SMILES | IC50 |
| --- | --- |
| Cc1nc(C(=O)Nc2cccc(-c3cccc4c3CCN4C(=O)c3nc(C)c(CN[C@H](C(=O)O)C4CCOCC4)s3)c2C)sc1CN[C@H](C(=O)O)C1CCOCC1 [Example 59, (S)-2-((2-(3-(1-(5-(((S)-carboxy(tetrahydro-2H-pyran-4-yl)methylamino)methyl)-4-methylthiazole-2-carbonyl)indolin-4-yl)-2-methylphenylcarbamoyl)-4-methylthiazol-5-yl)methylamino)-2-(tetrahydro-2H-pyran-4-yl)acetic acid] | < 25 nM |
| Cc1c(NC(=O)c2nnc(CNC(=N)N)s2)cccc1-c1cccc(NC(=O)c2nnc(CNC(=N)N)s2)c1C [Example 37, N,N′-(2,2′-dimethyl-[1,1′-biphenyl]-3,3′-diyl)bis(5-(guanidinomethyl)-1,3,4-thiadiazole-2-carboxamide)] | < 25 nM |
| O=C(O)CN1CCc2nc(C(=O)Nc3cccc(-c4cccc(NC(=O)c5nc6c(s5)CN(CC(=O)O)CC6)c4Cl)c3Cl)sc2C1 [Example 65, 2,2′-((((2,2′-dichloro-[1,1′-biphenyl]-3,3′-diyl)bis(azanediyl))bis(carbonyl))bis(6,7-dihydrothiazolo[5,4-c]pyridine-2,5(4H)-diyl))diacetic acid] | < 25 nM |
| Cc1nc(C(=O)Nc2cccc(-c3cccc4c3CCN4C(=O)c3nc(C)c(CN4CCCC[C@H]4C(=O)O)s3)c2)sc1CN1CCCC[C@H]1C(=O)O [Example 62, (S)-1-((2-(3-(1-(5-(((S)-2-carboxypiperidin-1-yl)methyl)-4-methylthiazole-2-carbonyl)indolin-4-yl)phenylcarbamoyl)-4-methylthiazol-5-yl)methyl)piperidine-2-carboxylic acid] | < 25 nM |
| Cc1c(NC(=O)c2nnc([C@H](C)N)o2)cccc1-c1cccc(NC(=O)c2nnc([C@H](C)N)o2)c1C [Example 9, N,N′-(2,2′-dimethyl-[1,1′-biphenyl]-3,3′-diyl)bis(5-((S)-1-aminoethyl)-1,3,4-oxadiazole-2-carboxamide)] | < 25 nM |
| Cc1c(NC(=O)c2nnc([C@H](C)N3CCCC[C@H]3C(=O)O)s2)cccc1-c1cccc(NC(=O)c2nnc([C@H](C)N3CCCC[C@H]3C(=O)O)s2)c1C [Example 17, (2S,2'S)-1,1′-((1S,1'S)-((((2,2′-dimethyl-[1,1′-biphenyl]-3,3′-diyl)bis(azanediyl))bis(carbonyl))bis(1,3,4-thiadiazole-5,2-diyl))bis(ethane-1,1-diyl))bis(piperidine-2-carboxylic acid)] | < 25 nM |
| Cc1c(NCc2nc3c(s2)CNCC3)cccc1-c1cccc(NCc2nc3c(s2)CNCC3)c1C [Example 25, 2,2′-dimethyl-N3,N3′-bis((4,5,6,7-tetrahydrothiazolo[5,4-c]pyridin-2-yl)methyl)-[1,1′-biphenyl]-3,3′-diamine] | 25 to 100 nM |
| Cc1c(NC(=O)c2nnc([C@H](C)N3CCCC[C@H]3C(=O)O)o2)cccc1-c1cccc(NC(=O)c2nnc([C@H](C)N3CCCC[C@H]3C(=O)O)o2)c1C [Example 16, (2S,2'S)-1,1′-((1S,1'S)-((((2,2′-dimethyl-[1,1′-biphenyl]-3,3′-diyl)bis(azanediyl))bis(carbonyl))bis(1,3,4-oxadiazole-5,2-diyl))bis(ethane-1,1-diyl))bis(piperidine-2-carboxylic acid)] | < 25 nM |
| Cc1nc(C(=O)Nc2cccc(-c3cccc(NC(=O)c4nc(C)c(CN[C@H](C(=O)O)C5CCOCC5)s4)c3C)c2C)sc1CN[C@H](C(=O)O)C1CCOCC1 [Example 53, (2S,2'S)-2,2′-(2,2′-(2,2′-dimethylbiphenyl-3,3′-diyl)bis(azanediyl)bis(oxomethylene)bis(4-methylthiazole-5,2-diyl))bis(methylene)bis(azanediyl)bis(2-(tetrahydro-2H-pyran-4-yl)acetic acid)] | < 25 nM |
| O=C(c1nc2c(s1)CN(CC(F)F)CC2)N1CCc2c(-c3cccc4c3CCN4C(=O)c3nc4c(s3)CN(CC(F)F)CC4)cccc21 [Example 85, [4,4′-biindoline]-1,1′-diylbis((5-(2,2-difluoroethyl)-4,5,6,7-tetrahydrothiazolo[5,4-c]pyridin-2-yl)methanone)] | 25 to 100 nM |
| Cc1c(-c2cccc(N(C)C(=O)c3nc4c(s3)CNCC4)c2C)cccc1N(C)C(=O)c1nc2c(s1)CNCC2 [Example 23, N,N′-(2,2′-dimethyl-[1,1′-biphenyl]-3,3′-diyl)bis(N-methyl-4,5,6,7-tetrahydrothiazolo[5,4-c]pyridine-2-carboxamide)] | 100 to 200 nM |
| Cc1c(NC(=O)c2nc3c(s2)CN(CCO)CC3)cccc1-c1cccc(NC(=O)c2nc3c(s2)CN(CCO)CC3)c1C [Example 82, N,N′-(2,2′-dimethyl-[1,1′-biphenyl]-3,3′-diyl)bis(5-(2-hydroxyethyl)-4,5,6,7-tetrahydrothiazolo[5,4-c]pyridine-2-carboxamide)] | < 25 nM |

Now from value to compound:

| IC50 | SMILES |
| --- | --- |
| < 25 nM | O=C(c1ncc(CNCCO)s1)N1CCc2c(-c3cccc4c3CCN4C(=O)c3nc4c(s3)CNCC4)cccc21 [Example 99, (5-(((2-hydroxyethyl)amino)methyl)thiazol-2-yl)(1′-(4,5,6,7-tetrahydrothiazolo[5,4-c]pyridine-2-carbonyl)-[4,4′-biindolin]-1-yl)methanone] |
| < 25 nM | Cc1nc(C(=O)N2CCc3c(-c4cccc5c4CCN5C(=O)c4ncc(CN(C)CCO)s4)cccc32)sc1CN(C)C [Example 115, (5-((dimethylamino)methyl)-4-methylthiazol-2-yl)(1′-(5-(((2-hydroxyethyl)(methyl)amino)methyl)thiazole-2-carbonyl)-[4,4′-biindolin]-1-yl)methanone] |
| < 25 nM | CNCc1cnc(C(=O)N2CCc3c(-c4cccc5c4CCN5C(=O)c4ncc(CNC)s4)cccc32)s1 [Example 113, [4,4′-biindoline]-1,1′-diylbis((5-((methylamino)methyl)thiazol-2-yl)methanone)] |
| < 25 nM | Cc1c(Nc2nccc3cc(CNCC(=O)O)cnc23)cccc1-c1cccc2c1CCN2C(=O)C1=NC2CCN(CC(=O)O)CC2S1 (centres unmarked) [Example 160, ((8-((3-(1-(5-(carboxymethyl)-3a,4,5,6,7,7a-hexahydrothiazolo[5,4-c]pyridine-2-carbonyl)indolin-4-yl)-2-methylphenyl)amino)-1,7-naphthyridin-3-yl)methyl)glycine] |
| < 25 nM | Cc1c(NC(=O)c2nc3c(s2)CNCC3)cc(F)cc1-c1cc(F)cc(NC(=O)c2nc3c(s2)CNCC3)c1C [Example 96, N,N′-(5,5′-difluoro-2,2′-dimethyl-[1,1′-biphenyl]-3,3′-diyl)bis(4,5,6,7-tetrahydrothiazolo[5,4-c]pyridine-2-carboxamide)] |
| < 25 nM | Cc1c(Nc2nccc3cc(CNC(C)C(=O)O)cnc23)cccc1-c1cccc(Nc2nccc3cc(CNC(C)C(=O)O)cnc23)c1C (centres unmarked) [Example 140, 2,2′-(((((2,2′-dimethyl-[1,1′-biphenyl]-3,3′-diyl)bis(azanediyl))bis(1,7-naphthyridine-8,3-diyl))bis(methylene))bis(azanediyl))dipropionic acid] |
| < 25 nM | Cc1c(Nc2nccc3cc(CNCC(=O)O)cnc23)cccc1-c1cccc2c1CCN2C(=O)C1=NC2CCN(CCC(=O)O)CC2S1 (centres unmarked) [Example 161, 3-(2-(4-(3-((3-(((carboxymethyl)amino)methyl)-1,7-naphthyridin-8-yl)amino)-2-methylphenyl)indoline-1-carbonyl)-3a,6,7,7a-tetrahydrothiazolo[5,4-c]pyridin-5(4H)-yl)propanoic acid] |
| < 25 nM | COC(=O)N[C@H](C(=O)N1CCc2nc(C(=O)Nc3cccc(-c4cccc(NC(=O)c5ccc6c(n5)CCN(C(=O)[C@@H](NC(=O)OC)C(C)C)C6)c4C)c3C)ccc2C1)C(C)C [Example 169, dimethyl ((2S,2'S)-((((2,2′-dimethyl-[1,1′-biphenyl]-3,3′-diyl)bis(azanediyl))bis(carbonyl))bis(7,8-dihydro-1,6-naphthyridine-2,6(5H)-diyl))bis(3-methyl-1-oxobutane-1,2-diyl))dicarbamate] |
| < 25 nM | Cc1c(Nc2nccc3cc(CNCC(N)=O)cnc23)cccc1-c1cccc2c1CCN2C(=O)C1=NC2CCN(CC(=O)O)CC2S1 (centres unmarked) [Example 164, 2-(2-(4-(3-((3-(((2-amino-2-oxoethyl)amino)methyl)-1,7-naphthyridin-8-yl)amino)-2-methylphenyl)indoline-1-carbonyl)-3a,6,7,7a-tetrahydrothiazolo[5,4-c]pyridin-5(4H)-yl)acetic acid] |
| < 25 nM | Cc1c(NC(=O)c2ccc3c(n2)CCN(C)C3)cccc1-c1cccc(NC(=O)c2ccc3c(n2)CCN(C)C3)c1C [Example 175, N,N′-(2,2′-dimethyl-[1,1′-biphenyl]-3,3′-diyl)bis(6-methyl-5,6,7,8-tetrahydro-1,6-naphthyridine-2-carboxamide)] |

Same assay, conditions: recombinant human PD-L1 (19-238) His-tag / human PD-1 (25-167) Fc tag, numeric values

| IC50 | SMILES |
| --- | --- |
| 0.21 nM | O=C(c1nc2c(s1)CNCC2)N1CCc2c(-c3cccc4c3CCN4C(=O)c3nc4c(s3)CNCC4)cccc21 [Example 33, [4,4′-biindoline]-1,1′-diylbis((4,5,6,7-tetrahydrothiazolo[5,4-c]pyridin-2-yl)methanone)] |
